Source: patent US6423325B1, “Skin care composition” (Conopco, Inc., priority 1999, dated 2002)
Values joined by “and” are separate entries in the source; they are usually repeats but may differ in a detail not shown here. Equal values may be shown once.

System: procollagen-I synthesis in human dermal fibroblasts
Test: Dot blot assay for procollagen-I protein in dermal fibroblast conditioned medium
Format: cell-based
Details: 24 hours, primary human foreskin fibroblasts, relative to vehicle treated control value of 100
Procedure: Primary human foreskin fibroblasts at passage 2 (P2) were seeded into 12-well plates at 10000 cells/cm^2 and maintained for 24 hours in an atmosphere of 5% carbon dioxide and 4% oxygen in Dulbeccos Modified Eagles Medium (DMEM) supplemented with 10% foetal calf serum. After this time the cells were washed with serum free DMEM and then incubated in fresh serum free DMEM for a further 60 hours. The fibroblast monolayers were then washed again with serum free DMEM. Test reagents and vehicle controls were added to the cells in triplicate in a final volume of 0.4 ml/well fresh serum free DMEM and incubated for a further 24 hours.
This fibroblast conditioned medium was either analysed immediately or snap frozen in liquid nitrogen and stored at −70° C. for future analysis. The cells were then counted and data from the dot-blot analysis subsequently standardised to cell number.
Samples of conditioned medium from dermal fibroblasts treated with vehicle (as a control) or test reagents were supplemented with 20 mM dithiothreitol (1:10 dilution of 200 mM stock solution) and 0.1% sodium dodecylsulphate (1:100 dilution of 10% stock solution), mixed well and then incubated at 75° C. for 2 minutes.
A standard for the assay was generated by serial dilution of neat fibroblast conditioned medium from fibroblasts seeded at 10000 cells/cm^2 in a 175 cm^2 flask and maintained in serum free DMEM as described above. Assay samples were subsequently applied in triplicate to a prewetted sheet of Immobilon-P transfer membrane using the 96-well Bio-Dot Apparatus from Bio-Rad as described in the manufacturers guidelines. Approximately 200 μl of medium was applied per well. The medium was allowed to filter through the membrane under gravity (30 minutes) after which the membrane was washed twice with PBS (200 μl). These PBS washes were allowed to filter through the membrane under gravity (2×15 minutes).
The Bio-Dot apparatus was then attached to a vacuum manifold and a third and final PBS wash carried out under suction. The apparatus was disassembled, the membrane removed and quickly cut as required before being placed in blocking buffer overnight at 4° C. Membranes prepared for procollagen-I analysis were blocked with 5% (w/v) non-fat dried milk powder/0.05% Tween 20 in PBS. The following day, the membranes were probed with 1:10000 dilution of primary antibodies to human procollagen-I (MAB1912; rat monoclonal; Chemicon Int. Inc., Temecula, Calif.) for 2 hours at room temperature. The membranes were subsequently washed with TBS/0.05% Tween 20 (3×5 minutes) and then incubated with 1:1000 dilution of ^125I-conjugated anti-rat fragments (Amersham) as required for 1 hour at room temperature. Following this the Immobilon strips were again washed with TBS/Tween 20 (3×5 minutes) before being allowed to dry in air at room temperature.
The dried membranes were wrapped in cellophane and exposed to a Molecular Dynamics storage phosphor screen for 16-18 hours. […] Dot intensity was assessed by computer-assisted image analysis using the quantification tools in ImageQuant™, standardised to cell number and the effects of various test reagents procollagen-I synthesis were determined relative to a vehicle treated control value of 100 arbitrary units.
In order to normalise the results the effects of the test substances were determined relative to a vehicle treated control value of 100 arbitrary units. […]

`CCCCCCCCCCC/C=C\CCCCC(=O)O` [PA, Petroselinic acid] showed a Procollagen-I (1 μM) of 87.6 arbitrary units.

For `CC/C=C\C/C=C\C/C=C\C/C=C\C/C=C\C/C=C\CCC(=O)O` [DHA, Docosahexaenoic acid], the Procollagen-I (10 μM) was 105.1 arbitrary units.

`CCCCCCCC/C=C\CCCCCCCC(=O)O` [oleic acid, reference compound] showed a Procollagen-I (10 μM) of 102.6 arbitrary units.

`CCCCC/C=C\C/C=C\CCCCCCCC(=O)O` [linoleic acid] was tested, and the Procollagen-I (1 μM) was 99.3 arbitrary units and the Procollagen-I (10 μM) was 111.8 arbitrary units and 110.3 arbitrary units.
